Measurements taken from US20040006002A1, “Methods and compositions for treating flaviviruses and pestiviruses using 4'-modified nucleoside” (priority 2001, published 2004).

Assays:
[1] = Cytotoxicity assay (sulforhodamine B, 4 days); type: cell-based; conditions: bovine; MDBK cells, 4 days incubation, concentration reducing cell number by 50%; preliminary results
Procedure: (§1) The test compounds were dissolved in DMSO at an initial concentration of 200 μM and then were serially diluted in culture medium.
(§2) Cells are seeded at a rate of between 5×10^3 and 5×10^4/well into 96-well plates in growth medium overnight at 37° C. in a humidified CO2 (5%) atmosphere. New growth medium containing serial dilutions of the drugs is then added. After incubation for 4 days, cultures are fixed in 50% TCA and stained with sulforhodamineB. The optical density was read at 550 nm. The cytotoxic concentration was expressed as the concentration required to reduce the cell number by 50% (CC50).

BVDV (strain NADL) = assay: Cell Protection Assay (CPA), BVDV-infected MDBK cells; type: cell-based, Bovine Viral Diarrhea virus; conditions: MOI 0.02, MDBK cells, four days post-infection, 50% reduction of cytopathic effect
Procedure: as §1
(§3) The assay is performed essentially as described by Baginski, S. G.; Pevear, D. C.; Seipel, M.; Sun, S. C. C.; Benetatos, C. A.; Chunduru, S. K.; Rice, C. M. and M. S. Collett “Mechanism of action of a pestivirus antiviral compound” PNAS USA 2000, 97(14), 7981-7986. MDBK cells (ATCC) are seeded onto 96-well culture plates (4,000 cells per well) 24 hours before use. After infection with BVDV (strain NADL, ATCC) at a multiplicity of infection (MOI) of 0.02 plaque forming units (PFU) per cell, serial dilutions of test compounds are added to both infected and uninfected cells in a final concentration of 0.5% DMSO in growth medium. Each dilution is tested in quadruplicate. Cell densities and virus inocula are adjusted to ensure continuous cell growth throughout the experiment and to achieve more than 90% virus-induced cell destruction in the untreated controls after four days post-infection. After four days, plates are fixed with 50% TCA and stained with sulforhodamine B. The optical density of the wells is read in a microplate reader at 550 nm. The 50% effective concentration (EC50) values are defined as the compound concentration that achieved 50% reduction of cytopathic effect of the virus.

[2] = Cell Protection Assay (CPA), uninfected cells (cytotoxicity); type: cell-based; conditions: bovine, uninfected MDBK cells, Table 2, Cell Protection Assay
Procedure: as §2, §3

MDBK = assay: Cytotoxicity assay (sulforhodamine B, 4 days); type: cell-based; conditions: MDBK cells, 4 days incubation, concentration reducing cell number by 50%; preliminary results
Procedure: as §1, §2

MDBK cells = assay: Cell Protection Assay (CPA), uninfected cells (cytotoxicity); type: cell-based; conditions: Table 2, Cell Protection Assay
Procedure: as §2, §3

[3] = Bovine viral diarrhea virus isolates and strains, 96 h

Row | SMILES | CC50 at 4 days [1] [µM] | EC50 (BVDV (strain NADL); [3]) [µM] | CC50 at 4 days [2] [µM] | melting point | CC50 (MDBK) [µM] | EC50 (BVDV (strain NADL)) [µM] | CC50 (MDBK cells) [µM]
1 | C[C@]1(CO)O[C@@H](n2ccc(N)nc2=O)[C@H](O)[C@@H]1O [β-D-4'-CH3-riboC, 1-(4-C-methyl-β-D-ribofuranosyl)cytosine] | > 250 | 9 | > 250 | – | – | – | –
2 | C[C@]1(CO)O[C@@H](n2ccc(=S)[nH]c2=O)[C@H](O)[C@@H]1O [β-D-4'-CH3-ribo-4-thioU, 1-(4-C-methyl-β-D-ribofuranosyl)4-thio-uracil] | > 250 | > 250 | > 250 | 65 to 70 °C (dec.) | – | – | –
3 | Cc1cn([C@@H]2O[C@](C)(CO)[C@@H](O)[C@H]2O)c(=O)[nH]c1=O [β-D-4'-CH3-riboT, 1-(4-C-methyl-β-D-ribofuranosyl)thymine] | > 250 | > 250 | > 250 | 258 to 260 °C (dec.) | – | – | –
4 | C[C@]1(CO)O[C@@H](n2cnc3c(N)ncnc32)[C@H](O)[C@@H]1O [β-D-4'-CH3-riboA, 9-(4-C-methyl-β-D-ribofuranosyl) adenine] | > 250 | > 250 | > 250 | 96 to 97 °C (dec.) | – | – | –
5 | C[C@]1(CO)O[C@@H](n2cc(F)c(=O)[nH]c2=O)[C@H](O)[C@@H]1O [β-D-4'-CH3-ribo-5-fluoroU] | – | – | – | – | > 167 | > 167 | > 167
6 | C[C@]1(CO)O[C@@H](n2cnc3c(=O)[nH]c(N)nc32)[C@H](O)[C@@H]1O [β-D-4'-CH3-riboG, 9-(4-C-methyl-β-D-ribofuranosyl) guanine] | > 250 | 43 | > 250 | – | – | – | –
